The results in this text go back to US7192763B2, “Streptomyces anulatus microorganism and a process for producing the substance GM-95” (Sosei Co., Ltd., priority 2001, dated 2007).

Data set [1] relates to SKOV-3 (human ovarian cancer). As to the kind of experiment: Tumor cell growth inhibition (crystal violet), SKOV-3. The data set is classed as cell-based. To be noted: SK-OV-3, 72 hours, read-out: Concentrations for 50% growth inhibition of various tumor cells (IC50). The method, then:
(§1) Tumor cells described in Table 5 were suspended in RPMI1640 medium containing 10% fetal calf serum, plated into culture plates (38 mm) at the density of in 2×10^3 cells each, and cultured in 37° C., 5% CO2 incubator overnight. Subsequently, experimental agents (the compound of the invention and 5-fluorouracil) diluted to various concentrations using RPMI1640 medium containing 10% fetal calf serum were added to each plate, and further cultured for 72 hours. After the cell culture was completed, those cells were fixed with 25% glutalaldehyde for 15 minutes and washed with water three times. After that, the cells were stained with 0.05% crystal violet diluted in 20% methanol aqueous solution, washed with water three times and then dried. The crystal violet were extracted with 100 μl of 0.05M sodium dihydrogenphosphate/ethanol (1/1(v/v)), their absorbance at 540 nm were determined by an automatic spectroscope. “IC50” was defined as the concentration required for a 50% reduction in growth compared to the control absorbance.

Another data set concerns A375SM (human melanoma). As to the kind of experiment: Tumor cell growth inhibition (crystal violet), A375SM. The class given is cell-based. The conditions noted are these: A375-SM, 72 hours, read-out: Concentrations for 50% growth inhibition of various tumor cells (IC50). The method, then:
as §1

Data set [2] relates to ZR75-1 (human breast cancer). As to the kind of experiment: Tumor cell growth inhibition (crystal violet), ZR75-1. The class given is cell-based. To be noted: ZR-75-1, 72 hours, read-out: Concentrations for 50% growth inhibition of various tumor cells (IC50). As to the method: as §1
For data set [3], the system named is KM12C-SM (human colon cancer). As to the kind of experiment: Tumor cell growth inhibition (crystal violet), KM12C-SM. The data set is classed as cell-based. The conditions noted are these: 72 hours, read-out: Concentrations for 50% growth inhibition of various tumor cells (IC50). As to the method: as §1
For data set [4], the system named is PAN-3 (human pancreatic cancer). As to the kind of experiment: Tumor cell growth inhibition (crystal violet), PAN-3. To be noted: 72 hours, read-out: Concentrations for 50% growth inhibition of various tumor cells (IC50). The data set is classed as cell-based. The method, then: as §1
The test system of data set [5] is Renca (mouse renal cancer). As to the kind of experiment: Tumor cell growth inhibition (crystal violet), Renca. The class given is cell-based. To be noted: 72 hours, read-out: Concentrations for 50% growth inhibition of various tumor cells (IC50). As to the method:
as §1

Data set [6] relates to TMK-1 (human gastric cancer). As to the kind of experiment: Tumor cell growth inhibition (crystal violet), TMK-1. The class given is cell-based. To be noted: 72 hours, read-out: Concentrations for 50% growth inhibition of various tumor cells (IC50). As to the method:
as §1

Data set [7] concerns PC-3 (human prostate cancer). As to the kind of experiment: Tumor cell growth inhibition (crystal violet), PC-3. The class given is cell-based. The conditions noted are these: 72 hours, read-out: Concentrations for 50% growth inhibition of various tumor cells (IC50). The method, then: as §1
Data set [8] has as its system HT-29 (human colon cancer). As to the kind of experiment: Tumor cell growth inhibition (crystal violet), HT-29. To be noted: 72 hours, read-out: Concentrations for 50% growth inhibition of various tumor cells (IC50). The data set is classed as cell-based. The method, then:
as §1

Data set [9] has as its system MCF-7 (human breast cancer). As to the kind of experiment: Tumor cell growth inhibition (crystal violet), MCF-7. The class given is cell-based. The conditions noted are these: MCF7, 72 hours, read-out: Concentrations for 50% growth inhibition of various tumor cells (IC50). As to the method: as §1
In data set [10] the test system is OVCAR-3 (human ovarian cancer). As to the kind of experiment: Tumor cell growth inhibition (crystal violet), OVCAR-3. The class given is cell-based. The conditions noted are these: 72 hours, read-out: Concentrations for 50% growth inhibition of various tumor cells (IC50). The method, then: as §1
Data set [11] concerns DLD-1 (human colon cancer). As to the kind of experiment: Tumor cell growth inhibition (crystal violet), DLD-1. The class given is cell-based. The conditions noted are these: 72 hours, read-out: Concentrations for 50% growth inhibition of various tumor cells (IC50). As to the method: as §1
The next data set is described as follows: Solubilities in solvents. The class given is physicochemical. The text has this:
Insoluble in water and in acetone.
Soluble in a mixture of chloroform:methanol=1:1 • 8) Color of the substance: white yellowish powders • 9) Nuclear magnetic resonance spectrum

The target of a further data set is T1, telomerase (Homo sapiens, UniProt O14746).
T1 construct: using cell extracts containing telomerase according to the conventional manner; endogenous in cells
As to the kind of experiment: Telomerase-inhibiting activity using cell extracts containing telomerase. The data set is classed as biochemical. To be noted: read-out: concentration for inhibiting telomerase activity by 50% (IC50) in cell extracts. The text has this: The compound of the invention was subjected to the examination of telomerase-inhibiting activity using cell extracts containing telomerase according to the conventional manner, to provide the concentration for inhibiting telomerase activity by 50% (IC50) in cell extracts.

T1 sequence (O14746 whole entry): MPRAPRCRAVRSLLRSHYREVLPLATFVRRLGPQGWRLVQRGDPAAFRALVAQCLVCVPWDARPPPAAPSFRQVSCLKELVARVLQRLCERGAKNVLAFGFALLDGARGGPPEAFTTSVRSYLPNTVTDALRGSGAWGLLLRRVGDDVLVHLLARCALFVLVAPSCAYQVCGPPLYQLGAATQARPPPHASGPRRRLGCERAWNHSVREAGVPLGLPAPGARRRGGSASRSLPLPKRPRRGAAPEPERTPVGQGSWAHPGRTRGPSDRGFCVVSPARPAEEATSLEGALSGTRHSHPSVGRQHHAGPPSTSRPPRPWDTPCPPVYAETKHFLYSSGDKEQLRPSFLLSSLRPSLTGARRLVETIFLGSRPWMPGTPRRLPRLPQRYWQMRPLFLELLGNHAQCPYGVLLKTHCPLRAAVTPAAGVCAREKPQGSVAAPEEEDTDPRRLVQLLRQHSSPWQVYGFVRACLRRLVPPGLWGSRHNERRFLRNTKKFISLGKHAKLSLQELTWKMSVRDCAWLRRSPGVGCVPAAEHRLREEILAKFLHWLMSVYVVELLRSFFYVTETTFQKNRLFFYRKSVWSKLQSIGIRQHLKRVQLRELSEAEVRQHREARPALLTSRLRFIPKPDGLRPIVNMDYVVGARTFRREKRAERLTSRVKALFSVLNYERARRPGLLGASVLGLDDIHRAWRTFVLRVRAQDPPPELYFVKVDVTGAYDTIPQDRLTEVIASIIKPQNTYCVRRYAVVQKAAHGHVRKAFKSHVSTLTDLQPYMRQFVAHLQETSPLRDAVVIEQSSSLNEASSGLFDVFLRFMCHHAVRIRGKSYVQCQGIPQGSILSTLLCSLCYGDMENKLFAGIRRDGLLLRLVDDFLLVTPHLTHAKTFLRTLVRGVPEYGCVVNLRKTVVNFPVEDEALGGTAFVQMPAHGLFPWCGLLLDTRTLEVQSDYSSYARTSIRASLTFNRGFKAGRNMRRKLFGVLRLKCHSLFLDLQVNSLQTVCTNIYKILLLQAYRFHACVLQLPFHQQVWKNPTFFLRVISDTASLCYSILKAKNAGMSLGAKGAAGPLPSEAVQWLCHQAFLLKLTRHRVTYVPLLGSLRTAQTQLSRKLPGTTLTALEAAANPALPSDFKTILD

Consider `O=c1[nH]cc(F)c(=O)[nH]1` [5-fluorouracil, reference compound], for which the IC50 in [1] was found to be 7.84 µM; in the data set with A375SM (human melanoma), 2.89 µM; in data set [2], 3.63 µM; in data set [3] it was 1.32 µM; in data set [4], 8.82 µM; in [5], 0.58 µM. Besides, the IC50 was 0.33 µM in data set [6]; 5.7 µM in data set [7]; 2.1 µM in [8]; 1.12 µM in data set [9]; 0.37 µM in [10]; 5.5 µM in data set [11].

For `Cc1oc2nc1-c1nc(co1)-c1nc(co1)-c1nc(co1)-c1nc(co1)-c1nc(co1)C1=NC(CS1)c1nc-2c(C)o1` (stereo not shown) [Substance GM-95], the IC50 in [1] was 3.73 µM; in the data set with A375SM (human melanoma), 7.04 µM; in data set [2] it was 4.04 µM; in data set [3] it was 3.74 µM; in data set [4], 7.09 µM; at telomerase, 0.05 µM. For the same compound, the IC50 came out at 0.97 µM in [5]; 3.75 µM in data set [6]; 8.82 µM in [7]; 7.1 µM in data set [8]; 7.73 µM in data set [9]; 3.41 µM in [10]. Also, the IC50 in data set [11] worked out at 6.2 µM. Also, the Solubility in acetone result in the data set “Solubilities in solvents” (acetone) is reported as “Insoluble”. Further, the “Solubility in a mixture of chloroform:methanol=1:1” value in the data set “Solubilities in solvents” (chloroform:methanol=1:1) was “Soluble”. Besides, the Solubility in water result in the data set “Solubilities in solvents” (water) is recorded as “Insoluble”.
